Measurements: patent publication US9513294B2, “Megastokes amino-triazolyl-BODIPY compounds and applications to live neuron staining and human serum albumin FA1 drug site probing” (National University of Singapore, priority 2012, dated 2016)

Experiment: Absorbance and fluorescence emission spectra (SpectraMax M2)
Type: physicochemical
Conditions: FIG. 2 normalized spectra
In short: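 Absorbance and emission maxima measured on a SpectraMax M2 spectrophotometer, which also gave quantum yield data; analysis in GraphPrism.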

| SMILES | absorbance λmax | emission λmax |
| --- | --- | --- |
| Cc1ccccc1CNC1=[N+]2C(=C(c3ccc(N)cc3)c3ccc(-n4cc(CC5CCCCC5)nn4)n3[B-]2(F)F)C=C1 [MK101-8] | 474 nm | 563 nm |

Same assay, conditions: MK library, Table 5

| SMILES | λmax Absorp. | λmax Emission |
| --- | --- | --- |
| CC1CN(C2=[N+]3C(=C(c4ccc(N)cc4)c4ccc(-n5cc(C6CC6)nn5)n4[B-]3(F)F)C=C2)CC(C)O1 (centres unmarked) [MK20-4] | 476 nm | 564 nm |
| CC1CN(C2=[N+]3C(=C(c4ccc(N)cc4)c4ccc(-n5cc(C6CCCC6)nn5)n4[B-]3(F)F)C=C2)CC(C)O1 (centres unmarked) [MK20-5] | 476 nm | 580 nm |
| CC1CN(C2=[N+]3C(=C(c4ccc(N)cc4)c4ccc(-n5cc(CC6CCCCC6)nn5)n4[B-]3(F)F)C=C2)CC(C)O1 (centres unmarked) [MK20-8] | 476 nm | 563 nm |
| CC1CN(C2=[N+]3C(=C(c4ccc(N)cc4)c4ccc(-n5cc(CN(C)Cc6ccccc6)nn5)n4[B-]3(F)F)C=C2)CC(C)O1 (centres unmarked) [MK20-18] | 477 nm | 582 nm |
| CC1CN(C2=[N+]3C(=C(c4ccc(N)cc4)c4ccc(-n5cc(CCc6ccccc6)nn5)n4[B-]3(F)F)C=C2)CC(C)O1 (centres unmarked) [MK20-19] | 477 nm | 578 nm |
| CC(C)Cc1cn(-c2ccc3n2[B-](F)(F)[N+]2=C(N4CC(C)OC(C)C4)C=CC2=C3c2ccc(N)cc2)nn1 (centres unmarked) [MK20-43] | 478 nm | 584 nm |
| CCCc1cn(-c2ccc3n2[B-](F)(F)[N+]2=C(N4CC(C)OC(C)C4)C=CC2=C3c2ccc(N)cc2)nn1 (centres unmarked) [MK20-48] | 476 nm | 580 nm |
| CCCCCC(O)c1cn(-c2ccc3n2[B-](F)(F)[N+]2=C(N4CC(C)OC(C)C4)C=CC2=C3c2ccc(N)cc2)nn1 (centres unmarked) [MK20-69] | 480 nm | 586 nm |
| CC1CN(C2=[N+]3C(=C(c4ccc(N)cc4)c4ccc(-n5cc(CO)nn5)n4[B-]3(F)F)C=C2)CC(C)O1 (centres unmarked) [MK20-70] | 479 nm | 584 nm |
| CCCC(C)c1cn(-c2ccc3n2[B-](F)(F)[N+]2=C(N4CCc5ccccc5C4)C=CC2=C3c2ccc(N)cc2)nn1 (centres unmarked) [MK66-3] | 479 nm | 579 nm |
| Nc1ccc(C2=C3C=CC(N4CCc5ccccc5C4)=[N+]3[B-](F)(F)n3c2ccc3-n2cc(C3CC3)nn2)cc1 [MK66-4] | 479 nm | 587 nm |
| Nc1ccc(C2=C3C=CC(N4CCc5ccccc5C4)=[N+]3[B-](F)(F)n3c2ccc3-n2cc(C3CCCC3)nn2)cc1 [MK66-5] | 481 nm | 582 nm |
| Nc1ccc(C2=C3C=CC(N4CCc5ccccc5C4)=[N+]3[B-](F)(F)n3c2ccc3-n2cc(CC3CCCCC3)nn2)cc1 [MK66-8] | 480 nm | 590 nm |
| CN(Cc1ccccc1)Cc1cn(-c2ccc3n2[B-](F)(F)[N+]2=C(N4CCc5ccccc5C4)C=CC2=C3c2ccc(N)cc2)nn1 [MK66-18] | 478 nm | 587 nm |
| Nc1ccc(C2=C3C=CC(N4CCc5ccccc5C4)=[N+]3[B-](F)(F)n3c2ccc3-n2cc(CCc3ccccc3)nn2)cc1 [MK66-19] | 480 nm | 585 nm |
| CC(C)Cc1cn(-c2ccc3n2[B-](F)(F)[N+]2=C(N4CCc5ccccc5C4)C=CC2=C3c2ccc(N)cc2)nn1 [MK66-43] | 480 nm | 582 nm |

| SMILES | λmax Absorp. | λmax Emission |
| --- | --- | --- |
| CCCc1cn(-c2ccc3n2[B-](F)(F)[N+]2=C(N4CCc5ccccc5C4)C=CC2=C3c2ccc(N)cc2)nn1 [MK66-48] | 480 nm | 581 nm |
| CCCCCC(O)c1cn(-c2ccc3n2[B-](F)(F)[N+]2=C(N4CCc5ccccc5C4)C=CC2=C3c2ccc(N)cc2)nn1 (centres unmarked) [MK66-69] | 480 nm | 583 nm |
| Nc1ccc(C2=C3C=CC(N4CCc5ccccc5C4)=[N+]3[B-](F)(F)n3c2ccc3-n2cc(CO)nn2)cc1 [MK66-70] | 479 nm | 596 nm |
| CCCC(C)c1cn(-c2ccc3n2[B-](F)(F)[N+]2=C(NCc4ccccc4C)C=CC2=C3c2ccc(N)cc2)nn1 (centres unmarked) [MK101-3] | 475 nm | 562 nm |
| Cc1ccccc1CNC1=[N+]2C(=C(c3ccc(N)cc3)c3ccc(-n4cc(C5CC5)nn4)n3[B-]2(F)F)C=C1 [MK101-4] | 474 nm | 566 nm |
| Cc1ccccc1CNC1=[N+]2C(=C(c3ccc(N)cc3)c3ccc(-n4cc(C5CCCC5)nn4)n3[B-]2(F)F)C=C1 [MK101-5] | 475 nm | 565 nm |
| Cc1ccccc1CNC1=[N+]2C(=C(c3ccc(N)cc3)c3ccc(-n4cc(CC5CCCCC5)nn4)n3[B-]2(F)F)C=C1 [MK101-8] | 475 nm | 564 nm |
| Cc1ccccc1CNC1=[N+]2C(=C(c3ccc(N)cc3)c3ccc(-n4cc(CN(C)Cc5ccccc5)nn4)n3[B-]2(F)F)C=C1 [MK101-18] | 474 nm | 563 nm |
| Cc1ccccc1CNC1=[N+]2C(=C(c3ccc(N)cc3)c3ccc(-n4cc(CCc5ccccc5)nn4)n3[B-]2(F)F)C=C1 [MK101-19] | 472 nm | 560 nm |
| Cc1ccccc1CNC1=[N+]2C(=C(c3ccc(N)cc3)c3ccc(-n4cc(CC(C)C)nn4)n3[B-]2(F)F)C=C1 [MK101-43] | 474 nm | 562 nm |
| CCCc1cn(-c2ccc3n2[B-](F)(F)[N+]2=C(NCc4ccccc4C)C=CC2=C3c2ccc(N)cc2)nn1 [MK101-48] | 473 nm | 562 nm |
| CCCCCC(O)c1cn(-c2ccc3n2[B-](F)(F)[N+]2=C(NCc4ccccc4C)C=CC2=C3c2ccc(N)cc2)nn1 (centres unmarked) [MK101-69] | 475 nm | 563 nm |
| Cc1ccccc1CNC1=[N+]2C(=C(c3ccc(N)cc3)c3ccc(-n4cc(CO)nn4)n3[B-]2(F)F)C=C1 [MK101-70] | 474 nm | 565 nm |
| CCCC(C)c1cn(-c2ccc3n2[B-](F)(F)[N+]2=C(NCc4ccccc4OCC)C=CC2=C3c2ccc(N)cc2)nn1 (centres unmarked) [MK103-3] | 474 nm | 564 nm |
| CCOc1ccccc1CNC1=[N+]2C(=C(c3ccc(N)cc3)c3ccc(-n4cc(C5CC5)nn4)n3[B-]2(F)F)C=C1 [MK103-4] | 473 nm | 563 nm |

Experiment: Quantum yield measurements versus Acridine Yellow in EtOH
Type: physicochemical
Conditions: MK library, Table 5; excitation 460 nm
In short: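 Fluorescence quantum yield is relative to Acridine Yellow in EtOH (Φ 0.47), with excitation at 460 nm. Integrated emission at 510–700 nm was corrected for absorbance at the excitation wavelength and for solvent refractive index.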

| SMILES | φ (quantum yield) |
| --- | --- |
| CC1CN(C2=[N+]3C(=C(c4ccc(N)cc4)c4ccc(-n5cc(C6CC6)nn5)n4[B-]3(F)F)C=C2)CC(C)O1 (centres unmarked) [MK20-4] | 0.50% |
| CC1CN(C2=[N+]3C(=C(c4ccc(N)cc4)c4ccc(-n5cc(C6CCCC6)nn5)n4[B-]3(F)F)C=C2)CC(C)O1 (centres unmarked) [MK20-5] | 0.57% |
| CC1CN(C2=[N+]3C(=C(c4ccc(N)cc4)c4ccc(-n5cc(CC6CCCCC6)nn5)n4[B-]3(F)F)C=C2)CC(C)O1 (centres unmarked) [MK20-8] | 0.32% |
| CC1CN(C2=[N+]3C(=C(c4ccc(N)cc4)c4ccc(-n5cc(CN(C)Cc6ccccc6)nn5)n4[B-]3(F)F)C=C2)CC(C)O1 (centres unmarked) [MK20-18] | 0.23% |
| CC1CN(C2=[N+]3C(=C(c4ccc(N)cc4)c4ccc(-n5cc(CCc6ccccc6)nn5)n4[B-]3(F)F)C=C2)CC(C)O1 (centres unmarked) [MK20-19] | 0.34% |
| CC(C)Cc1cn(-c2ccc3n2[B-](F)(F)[N+]2=C(N4CC(C)OC(C)C4)C=CC2=C3c2ccc(N)cc2)nn1 (centres unmarked) [MK20-43] | 0.23% |
| CCCc1cn(-c2ccc3n2[B-](F)(F)[N+]2=C(N4CC(C)OC(C)C4)C=CC2=C3c2ccc(N)cc2)nn1 (centres unmarked) [MK20-48] | 0.25% |
| CCCCCC(O)c1cn(-c2ccc3n2[B-](F)(F)[N+]2=C(N4CC(C)OC(C)C4)C=CC2=C3c2ccc(N)cc2)nn1 (centres unmarked) [MK20-69] | 0.16% |
| CC1CN(C2=[N+]3C(=C(c4ccc(N)cc4)c4ccc(-n5cc(CO)nn5)n4[B-]3(F)F)C=C2)CC(C)O1 (centres unmarked) [MK20-70] | 0.18% |
| CCCC(C)c1cn(-c2ccc3n2[B-](F)(F)[N+]2=C(N4CCc5ccccc5C4)C=CC2=C3c2ccc(N)cc2)nn1 (centres unmarked) [MK66-3] | 0.16% |
| Nc1ccc(C2=C3C=CC(N4CCc5ccccc5C4)=[N+]3[B-](F)(F)n3c2ccc3-n2cc(C3CC3)nn2)cc1 [MK66-4] | 0.12% |
| Nc1ccc(C2=C3C=CC(N4CCc5ccccc5C4)=[N+]3[B-](F)(F)n3c2ccc3-n2cc(C3CCCC3)nn2)cc1 [MK66-5] | 0.19% |
| Nc1ccc(C2=C3C=CC(N4CCc5ccccc5C4)=[N+]3[B-](F)(F)n3c2ccc3-n2cc(CC3CCCCC3)nn2)cc1 [MK66-8] | 0.12% |
| CN(Cc1ccccc1)Cc1cn(-c2ccc3n2[B-](F)(F)[N+]2=C(N4CCc5ccccc5C4)C=CC2=C3c2ccc(N)cc2)nn1 [MK66-18] | 0.14% |
| Nc1ccc(C2=C3C=CC(N4CCc5ccccc5C4)=[N+]3[B-](F)(F)n3c2ccc3-n2cc(CCc3ccccc3)nn2)cc1 [MK66-19] | 0.13% |
| CC(C)Cc1cn(-c2ccc3n2[B-](F)(F)[N+]2=C(N4CCc5ccccc5C4)C=CC2=C3c2ccc(N)cc2)nn1 [MK66-43] | 0.14% |

| SMILES | φ (quantum yield) |
| --- | --- |
| CCCc1cn(-c2ccc3n2[B-](F)(F)[N+]2=C(N4CCc5ccccc5C4)C=CC2=C3c2ccc(N)cc2)nn1 [MK66-48] | 0.12% |
| CCCCCC(O)c1cn(-c2ccc3n2[B-](F)(F)[N+]2=C(N4CCc5ccccc5C4)C=CC2=C3c2ccc(N)cc2)nn1 (centres unmarked) [MK66-69] | 0.14% |
| Nc1ccc(C2=C3C=CC(N4CCc5ccccc5C4)=[N+]3[B-](F)(F)n3c2ccc3-n2cc(CO)nn2)cc1 [MK66-70] | 0.14% |
| CCCC(C)c1cn(-c2ccc3n2[B-](F)(F)[N+]2=C(NCc4ccccc4C)C=CC2=C3c2ccc(N)cc2)nn1 (centres unmarked) [MK101-3] | 1.08% |
| Cc1ccccc1CNC1=[N+]2C(=C(c3ccc(N)cc3)c3ccc(-n4cc(C5CC5)nn4)n3[B-]2(F)F)C=C1 [MK101-4] | 0.70% |
| Cc1ccccc1CNC1=[N+]2C(=C(c3ccc(N)cc3)c3ccc(-n4cc(C5CCCC5)nn4)n3[B-]2(F)F)C=C1 [MK101-5] | 0.58% |
| Cc1ccccc1CNC1=[N+]2C(=C(c3ccc(N)cc3)c3ccc(-n4cc(CC5CCCCC5)nn4)n3[B-]2(F)F)C=C1 [MK101-8] | 0.64% |
| Cc1ccccc1CNC1=[N+]2C(=C(c3ccc(N)cc3)c3ccc(-n4cc(CN(C)Cc5ccccc5)nn4)n3[B-]2(F)F)C=C1 [MK101-18] | 0.179% |
| Cc1ccccc1CNC1=[N+]2C(=C(c3ccc(N)cc3)c3ccc(-n4cc(CCc5ccccc5)nn4)n3[B-]2(F)F)C=C1 [MK101-19] | 2.03% |
| Cc1ccccc1CNC1=[N+]2C(=C(c3ccc(N)cc3)c3ccc(-n4cc(CC(C)C)nn4)n3[B-]2(F)F)C=C1 [MK101-43] | 2.36% |
| CCCc1cn(-c2ccc3n2[B-](F)(F)[N+]2=C(NCc4ccccc4C)C=CC2=C3c2ccc(N)cc2)nn1 [MK101-48] | 2.92% |
| CCCCCC(O)c1cn(-c2ccc3n2[B-](F)(F)[N+]2=C(NCc4ccccc4C)C=CC2=C3c2ccc(N)cc2)nn1 (centres unmarked) [MK101-69] | 2.40% |
| Cc1ccccc1CNC1=[N+]2C(=C(c3ccc(N)cc3)c3ccc(-n4cc(CO)nn4)n3[B-]2(F)F)C=C1 [MK101-70] | 1.92% |
| CCCC(C)c1cn(-c2ccc3n2[B-](F)(F)[N+]2=C(NCc4ccccc4OCC)C=CC2=C3c2ccc(N)cc2)nn1 (centres unmarked) [MK103-3] | 1.71% |
| CCOc1ccccc1CNC1=[N+]2C(=C(c3ccc(N)cc3)c3ccc(-n4cc(C5CC5)nn4)n3[B-]2(F)F)C=C1 [MK103-4] | 1.68% |
